Laboratory results reported in patent publication US4727090A, “Process for preparing and therapeutical applications of the 2,4,6-triiodophenol” (Bislak, S.A., priority 1983, dated 1988).
Where two headings read alike, the source gives them in different places.

Experiments:
[1] = tested on: acetic acid induced pullings; test: Writhing syndrome test (acetic acid); assay type: in vivo, mice; settings: 500 mg/kg oral; for inhibition at 500 mg/kg: Mus musculus, po, read-out: % INHIB. (pullings)
Description: Irritant substance: acetic acid at 0.5% injected via intraperitoneal.
Foundation of the method consists in provoking a dolorous syndrome by pulling and torsion of the stomach and the hind legs of the animals.
These pullings or stretchings are calculated during a certain time, using it as the measure of the provoked ache.
Mice of about 22 g by weight were used, animals were left under abstinence during 24 hours before carrying out the test.
Mice were previously selected as to each individual response to the dolorous stimulus provoked by an intraperitoneal injection of 0.2 ml of an acetic acid aqueous solution at the 0.5%. Valid animals for realizing the test are those which respond within a margin of 15-35 pullings in about 5 to 15 minutes after the injection. The remaining animals are not useful.
Medication is realized via oral with the help of an esophageal cannula.
White lot: Administration of 0.1 ml of CMC 1% for each 10 g of corporal weight.
2,4,6-triiodophenol lot: Administration of 10 mg/kg of the product, suspended in CMC of 1%.
Aspirin-Lysin lot (Solusprin): Administration of 500 mg/kg aspirin, dissolved at 1%.
After medication, one has to wait 20 minutes for injecting 0.2 ml acetic acid of 0.5% via intraperitoneal, calculating the number of pullings during 5 minutes. […]
The test was carried out in 9 mice in each lot.

[2] = tested on: sensation of pain on hot plate; test: Hot plate test at 56° C; assay type: in vivo, mice; settings: 500 mg/kg injection
Description: (A) To control analgesic activity we use mice of about 25 g by weight, in groups of ten mice, subjected to the test of the hot plate at 56° C.
Animals receive a medicamentous injection of 0.1 ml of solubilized aspirin with sodium bicarbonate, or of solubilized triiodophenol at pH 9'5.
Controls receive physiologic serum.
The time in which the animals indicate sensation of pain is measured with a chronometer.
In the hereunder table the results testing animals, 15 min. and 30 min. after the medication. Average values are taken of each group.

[3] = tested on: granuloma formed around cotton implant; test: Cotton implant granuloma test; assay type: in vivo, rats; settings: 72 hours
Description: (B) To a group of 10 rats of about 200-225 g is implanted at the dorsal zone, subcutaneously, balled cotton (about 9 mg) impregnated and afterwards dried with a solution of medicamentous substance and which amount is known.
We use as reference Dexamethasone and controls without medicament.
After 72 hours, once the animal is sacrificed, the granuloma formed around the implant is extracted and weighed, after drying at 100° C.
The antiinflammatory reduces the weight of the granuloma.

Carrageenin leg oedema [4] = test: Carrageenin leg oedema test; assay type: in vivo, white rats; settings: Rattus norvegicus; 10 mg/kg oral, 4 hours
Description: (A) The antiinflammatory action is shown in white rats, of a weight of about 200-225 g, having provoked in these animals the leg oedema by means of an injection in the sole of the foot of 0.1 ml of a 1% Carrageenin solution.
One control group of ten animals, another the same medicated with indomethacin via oral at 30 mg/kg, in suspension in a carboxymethylcellulose solution, another group of ten rats, medicated with triiodophenol in oral solution at 5 mg/kg, another group medicated with triioodophenol at 1 mg/kg, injected via intramuscular and another group medicated with triiodophenol at 0.5 mg/kg via intramuscular. All medications are administered simultaneously to the formation of Edema.
The volume of the same is measured at 0 hours, 3 hours, 4 hours, 5 hours and 6 hours with a mercury Plestimograph.

Carrageenin leg oedema [5] = test: Carrageenin leg oedema test; assay type: in vivo, white rats; settings: Rattus norvegicus, 10 mg/kg oral

For `CC(=O)Oc1ccccc1C(=O)O` [ASPIRIN, reference compound], the “Total No. pullings” value ([1]; 20') was 12, the “Total No. pullings” value ([1]; 30') was 6 and the “Total No. pullings” value ([1]; 100') was 6. For the same compound, the inhibition at 500 mg/kg ([1]; 20') was 90% and the inhibition at 500 mg/kg ([1]; 30') was 89.2%.

`CC(=O)Oc1ccccc1C(=O)O` [Acetyl salicylic acid, reference compound] was tested, and the “Time to sensation of pain” value ([2]; 15 minutes) was 4,3 sec and the “Time to sensation of pain” value ([2]; 30 minutes) was 6,8 sec.

With `C[C@@H]1C[C@H]2[C@@H]3CCC4=CC(=O)C=C[C@]4(C)[C@@]3(F)[C@@H](O)C[C@]2(C)[C@@]1(O)C(=O)CO` [Dexamethansone, reference compound] the “% Reduction of the granuloma (Average)” value ([3]; 10 micrograms per implant) was 16%, the “% Reduction of the granuloma (Average)” value ([3]; 20 micrograms per implant) was 28% and the “% Reduction of the granuloma (Average)” value ([3]; 40 micrograms per implant) was 30%.

With `COc1ccc2c(c1)c(CC(=O)O)c(C)n2C(=O)c1ccc(Cl)cc1` [Indomethacin] the inhibition at 10 mg/kg (Carrageenin leg oedema [4]) was 63%, the inhibition at 10 mg/kg (Carrageenin leg oedema [5]; 3 hours) was 59% and the inhibition at 10 mg/kg (Carrageenin leg oedema [5]; 5 hours) was 69%. The inhibition at 10 mg/kg (Carrageenin leg oedema [5]; 6 hours) was 73%.
